# Assay results reported in patent publication US8012963B2, “3,4-dihydro-2H-benzo[1,4]oxazine and thiazine derivatives as CETP inhibitors” (Janssen Pharmaceutica N.V., priority 2006, dated 2011).
# Values joined by “and” are separate entries in the source; they are usually repeats but may differ in a detail not shown here. Equal entries are not always repeated.
# Biological target: T1, CETP (Homo sapiens, UniProt P11597)
# T1 construct: from tissue; host or cells: human plasma from normal volunteers
# T1 sequence (P11597 18-493): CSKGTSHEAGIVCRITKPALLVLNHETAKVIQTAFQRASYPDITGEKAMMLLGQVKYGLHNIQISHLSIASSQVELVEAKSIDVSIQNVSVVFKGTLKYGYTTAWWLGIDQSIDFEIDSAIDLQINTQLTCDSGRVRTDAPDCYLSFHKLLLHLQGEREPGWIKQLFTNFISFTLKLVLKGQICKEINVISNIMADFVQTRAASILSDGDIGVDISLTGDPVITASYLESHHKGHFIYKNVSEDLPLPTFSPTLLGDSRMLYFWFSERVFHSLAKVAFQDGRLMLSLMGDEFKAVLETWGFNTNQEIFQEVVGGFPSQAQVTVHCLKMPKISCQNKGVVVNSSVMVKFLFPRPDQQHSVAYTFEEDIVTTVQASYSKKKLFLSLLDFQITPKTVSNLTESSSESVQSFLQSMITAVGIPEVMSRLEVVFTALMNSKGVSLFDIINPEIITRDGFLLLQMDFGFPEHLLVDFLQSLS
# Experiment: CETP in vitro assay ([3H]CE-HDL transfer, Amersham kit TRKQ7005; modified protocol in human plasma)
# Format: biochemical
# Conditions: multiple values = multiple measurements; for % Inhibition @ 1 μM / inhibition at 1 µM: 1 μM compound
# Protocol: The CETP inhibitory activity of the compounds was determined using a commercially available kit from Amersham Biosciences (Catalog #TRKQ7005).
# For the measurement of inhibitory activity in human plasma, a modified protocol (Connolly, D. T. et al., Biochemistry, 39 13870-13879, 2000) was used. Briefly, 80 μl of human plasma (obtained from normal volunteers), approximately 25 μg/ml (200) of [^3H]CE-HDL (Amersham Biosciences from kit TRKQ7005) and 1 μl of compound dissolved in DMSO was incubated for at least 4 hrs at 37° C. and non-specific transfer was determined by incubating a corresponding plate at 4° C. (blank). After the incubation period, 100 of a solution of 1% Dextralip 50/0.5M MgCl2, pH 7.4 was added, vortexed and incubated at room temperature for 10 min. The plate was then centrifuged for 30 min at 10° C. at 3000 rpm in a Sorvall RT6000B centrifuge. Fifty microliters of the supernatant was transferred to a Picoplate (Packard) containing 100 μl of Microscint 40 (Perkin Elmer) and mixed for 30 min using a plate mixer. The radioactivity was counted using a TopCount (Perkin Elmer) and the % control was determined in the samples using the following formula: % transfer relative to vehicle controls (% control)=[cpm blank-cpm test]/cpm blank/cpm control]×100. IC50s were calculated from plots of the % control versus compound concentration.
# A variety of example compounds have been made and tested, with a range of in vitro results. Below, in Table 2, are representative compounds and the corresponding data; in some cases, where multiple IC50's are shown, multiple measurements were taken. Naturally, different compounds in Formula (I), (Ia), (Ib) and (Ic) may have not activities identical to any one compound below.
Structure (SMILES),% Inhibition @ 1 μM,IC50,inhibition at 1 µM
"OC(CN1c2cccc(-c3cc(F)cc(F)c3)c2OCC1c1cccc(OC(F)(F)C(F)F)c1)C(F)(F)F (single isomer, unassigned) [Compound 64, 3-{8-(3,5-Difluoro-phenyl)-3-[3-(1,1,2,2-tetrafluoro-ethoxy)-phenyl]-2,3-dihydro-benzo[1,4]oxazin-4-yl}-1,1,1-trifluoro-propan-2-ol]",121% and 101% and 119%,100 nM and 117 nM,–
"OC(CN1c2cccc(-c3cc(F)cc(F)c3)c2OCC1c1cccc(OC(F)(F)C(F)F)c1)C(F)(F)F (single isomer, unassigned) [Compound 65, 3-{8-(3,5-Difluoro-phenyl)-3-[3-(1,1,2,2-tetrafluoro-ethoxy)-phenyl]-2,3-dihydro-benzo[1,4]oxazin-4-yl}-1,1,1-trifluoro-propan-2-ol]",86% and 76%,990 nM,–
"OC(CN1c2cccc(-c3cccc(F)c3)c2OCC1c1cccc(OC(F)(F)C(F)F)c1)C(F)(F)F (single isomer, unassigned) [Compound 66, 1,1,1-Trifluoro-3-{8-(3-fluoro-phenyl)-3-[3-(1,1,2,2-tetrafluoro-ethoxy)-phenyl]-2,3-dihydro-benzo[1,4]oxazin-4-yl}-propan-2-ol]",104% and 79% and 107%,–,–
"OC(CN1c2cccc(-c3cccc(F)c3)c2OCC1c1cccc(OC(F)(F)C(F)F)c1)C(F)(F)F (single isomer, unassigned) [Compound 67, 1,1,1-Trifluoro-3-{8-(3-fluoro-phenyl)-3-[3-(1,1,2,2-tetrafluoro-ethoxy)-phenyl]-2,3-dihydro-benzo[1,4]oxazin-4-yl}-propan-2-ol]",97% and 83%,780 nM,–
"OC(CN1c2cccc(-c3cccc(OC(F)(F)F)c3)c2OCC1c1ccc2c(c1)OC(F)(F)O2)C(F)(F)F (centres unmarked) [Compound 13, 3-[3-(2,2-Difluoro-benzo[1,3]dioxol-5-yl)-8-(3-trifluoromethoxy-phenyl)-2,3-dihydro-benzo[1,4]oxazin-4-yl]-1,1,1-trifluoro-propan-2-ol]",–,104 nM and 437 nM,48%
OC(CN1c2cccc(-c3cccc(OC(F)(F)F)c3)c2OCC1c1cccc(SC(F)(F)F)c1)C(F)(F)F (centres unmarked) [Compound 15],67% and 69%,360 nM,–
"OC(CN1c2cccc(-c3cccc(OC(F)(F)F)c3)c2OCC1c1cccc(SC(F)(F)F)c1)C(F)(F)F (centres unmarked) [Compound 16, 1,1,1-Trifluoro-3-[8-(3-trifluoromethoxy-phenyl)-3-(3-trifluoromethylsulfanyl-phenyl)-2,3-dihydro-benzo[1,4]oxazin-4-yl]-propan-2-ol]",20%,–,–
"CCOc1cccc(C2COc3c(-c4cccc(OC(F)(F)F)c4)cccc3N2CC(O)C(F)(F)F)c1 (centres unmarked) [Compound 17, 3-[3-(3-Ethoxy-phenyl)-8-(3-trifluoromethoxy-phenyl)-2,3-dihydro-benzo[1,4]oxazin-4-yl]-1,1,1-trifluoro-propan-2-ol]",55% and 56%,490 nM,–
"O=C(CN1c2cccc(-c3cccc(OC(F)(F)F)c3)c2OCC1c1ccc2c(c1)OC(F)(F)O2)C(F)(F)F (centres unmarked) [Compound 19, 3-[3-(2,2-Difluoro-benzo[1,3]dioxol-5-yl)-8-(3-trifluoromethoxy-phenyl)-2,3-dihydro-benzo[1,4]oxazin-4-yl]-1,1,1-trifluoro-propan-2-one]",–,–,0%

# The remaining lines, values ahead:
% Inhibition @ 1 μM,IC50,inhibition at 1 µM,Structure (SMILES)
96%,52 nM and 38 nM,–,"OC(CN1c2cccc(-c3cccc(OC(F)(F)F)c3)c2OCC1c1cccc(OC(F)(F)C(F)F)c1)C(F)(F)F (single isomer, unassigned) [Compound 1, 1,1,1-Trifluoro-3-[3-[3-(1,1,2,2-tetrafluoro-ethoxy)-phenyl]-8-(3-trifluoromethoxy-phenyl)-2,3-dihydro-benzo[1,4]oxazin-4-yl]-propan-2-ol]"
73%,276 nM and 131 nM,–,"OC(CN1c2cccc(-c3cccc(OC(F)(F)F)c3)c2OCC1c1cccc(OC(F)(F)C(F)F)c1)C(F)(F)F (single isomer, unassigned) [Compound 2, 1,1,1-Trifluoro-3-[3-[3-(1,1,2,2-tetrafluoro-ethoxy)-phenyl]-8-(3-trifluoromethoxy-phenyl)-2,3-dihydro-benzo[1,4]oxazin-4-yl]-propan-2-ol]"
–,14 nM,77%,"OC(CF)CN1c2cccc(-c3cccc(OC(F)(F)F)c3)c2OC[C@@H]1c1cccc(OC(F)(F)C(F)F)c1 (stereo in doubt) [Compound 74, 4H-1,4-Benzoxazine-4-ethanol, 2,3-dihydro-α-fluoromethyl-3-[3-(1,1,2,2-tetrafluoroethoxy)phenyl]-8-[3-(trifluoromethoxy)phenyl]-, (3S,αR)—]"
–,147 nM,55%,"OC(CF)CN1c2cccc(-c3cccc(OC(F)(F)F)c3)c2OC[C@@H]1c1cccc(OC(F)(F)C(F)F)c1 (stereo in doubt) [Compound 75, 4H-1,4-Benzoxazine-4-ethanol, 2,3-dihydro-α-fluoromethyl-3-[3-(1,1,2,2-tetrafluoroethoxy)phenyl]-8-[3-(trifluoromethoxy)phenyl]-, (3S,αS)—]"
–,–,26%,"O[C@H](CN1c2cccc(-c3cccc(OC(F)(F)F)c3)c2OC[C@@H]1c1cccc(OC(F)(F)C(F)F)c1)C(F)(F)F [Compound 4, 4H-1,4-Benzoxazine-4-ethanol, 2,3-dihydro-3-[3-(1,1,2,2-tetrafluoroethoxy)phenyl]-8-[3-(trifluoromethoxy)phenyl]-α-(trifluoromethyl)-, (3S,αR)—]"
–,–,23%,"O[C@H](CN1c2cccc(-c3cccc(OC(F)(F)F)c3)c2OC[C@H]1c1cccc(OC(F)(F)C(F)F)c1)C(F)(F)F [Compound 5, 4H-1,4-Benzoxazine-4-ethanol, 2,3-dihydro-3-[3-(1,1,2,2-tetrafluoroethoxy)phenyl]-8-[3-(trifluoromethoxy)phenyl]-α-(trifluoromethyl)-, (3R,αR)—]"
–,–,14%,"O[C@@H](CN1c2cccc(-c3cccc(OC(F)(F)F)c3)c2OC[C@H]1c1cccc(OC(F)(F)C(F)F)c1)C(F)(F)F [Compound 6, 4H-1,4-Benzoxazine-4-ethanol, 2,3-dihydro-3-[3-(1,1,2,2-tetrafluoroethoxy)phenyl]-8-[3-(trifluoromethoxy)phenyl]-α-(trifluoromethyl)-, (3R,αS)—]"
64% and 66%,104 nM and 110 nM,–,"OC(CN1c2cccc(-c3cccc(OC(F)(F)F)c3)c2OCC1c1cccc(OC(F)(F)F)c1)C(F)(F)F (centres unmarked) [Compound 7, 3-[3,8-Bis-(3-trifluoromethoxy-phenyl)-2,3-dihydro-benzo[1,4]oxazin-4-yl]-1,1,1-trifluoro-propan-2-ol]"
21%,–,–,"OC(CN1c2cccc(-c3cccc(OC(F)(F)F)c3)c2OCC1c1cccc(OC(F)(F)F)c1)C(F)(F)F (centres unmarked) [Compound 8, 3-[3,8-Bis-(3-trifluoromethoxy-phenyl)-2,3-dihydro-benzo[1,4]oxazin-4-yl]-1,1,1-trifluoro-propan-2-ol]"
72% and 67%,71 nM and 195 nM,68%,"O[C@@H](CN1c2cccc(-c3cccc(OC(F)(F)F)c3)c2OC[C@@H]1c1cccc(OC(F)(F)F)c1)C(F)(F)F [Compound 9, 4H-1,4-Benzoxazine-4-ethanol, 2,3-dihydro-3,8-bis[3-(trifluoromethoxy)phenyl]-α-(trifluoromethyl)-, (3S,αS)—]"
–,–,23%,"O[C@H](CN1c2cccc(-c3cccc(OC(F)(F)F)c3)c2OC[C@@H]1c1cccc(OC(F)(F)F)c1)C(F)(F)F [Compound 10, 4H-1,4-Benzoxazine-4-ethanol, 2,3-dihydro-3,8-bis[3-(trifluoromethoxy)phenyl]-α-(trifluoromethyl)-, (3S,αR)—]"
8%,–,–,CCOc1cccc(C2COc3c(-c4cccc(OC(F)(F)F)c4)cccc3N2CC(O)C(F)(F)F)c1 (centres unmarked) [Compound 18]
–,–,16%,"COC(=O)N1c2cccc(-c3cccc(OC(F)(F)F)c3)c2OCC1c1cccc(OC(F)(F)C(F)F)c1 (centres unmarked) [Compound 20, 3-[3-(1,1,2,2-Tetrafluoro-ethoxy)-phenyl]-8-(3-trifluoromethoxy-phenyl)-2,3-dihydro-benzo[1,4]oxazine-4-carboxylic acid methyl ester]"
